In ChEMBL document CHEMBL1201862, “PubChem BioAssay data set” (2004):
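Tested at 5 concentrations; 48 h exposure; 96-well plates; endpoints linearly interpolated, else capped at highest concentration. GI50 is the concentration that inhibits growth by half.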 Active and inactive are the calls of the source. Cut-off read from the data, not from the text of the source: active = GI50 up to about 1.1 µM and inactive = higher.

How the values were obtained:
Assay in all cases: NCI anticancer screen, dose series, 48 h
SF-295 = tested on: SF-295
ACHN = tested on: ACHN
NCI/ADR-RES = tested on: NCI/ADR-RES
MDA-MB-435 = tested on: MDA-MB-435
K562 = tested on: K562
SK-OV-3 = tested on: SK-OV-3
UACC-62 = tested on: UACC-62
SR = tested on: SR
OVCAR-8 = tested on: OVCAR-8
OVCAR-3 = tested on: OVCAR-3
SF-539 = tested on: SF-539
MDA-N = tested on: MDA-N
NCI-H460 = tested on: NCI-H460
HCT-116 = tested on: HCT-116
SW-620 = tested on: SW-620
RXF 393 = tested on: RXF 393
A498 = tested on: A498
HCC 2998 = tested on: HCC 2998
HOP-92 = tested on: HOP-92
U-251 = tested on: U-251
HT-29 = tested on: HT-29
UACC-257 = tested on: UACC-257
BT-549 = tested on: BT-549
Malme-3M = tested on: Malme-3M
MOLT-4 = tested on: MOLT-4
KM12 = tested on: KM12
NCI-H23 = tested on: NCI-H23
COLO 205 = tested on: COLO 205
OVCAR-5 = tested on: OVCAR-5
SK-MEL-5 = tested on: SK-MEL-5
T47D = tested on: T47D
EKVX = tested on: EKVX
TK-10 = tested on: TK-10
SF-268 = tested on: SF-268
SN12C = tested on: SN12C
SNB-19 = tested on: SNB-19
MDA-MB-231 = tested on: MDA-MB-231
SK-MEL-2 = tested on: SK-MEL-2
SK-MEL-28 = tested on: SK-MEL-28
NCI-H226 = tested on: NCI-H226
IGROV-1 = tested on: IGROV-1
M14 = tested on: M14
DU-145 = tested on: DU-145
RPMI-8226 = tested on: RPMI-8226
NCI-H522 = tested on: NCI-H522
CAKI-1 = tested on: CAKI-1
LOX IMVI = tested on: LOX IMVI
HCT-15 = tested on: HCT-15
HOP-62 = tested on: HOP-62
HL-60 = tested on: HL-60
PC-3 = tested on: PC-3
MCF7 = tested on: MCF7
SNB-75 = tested on: SNB-75
786-0 = tested on: 786-0
A549 = tested on: A549
UO-31 = tested on: UO-31
CCRF-CEM = tested on: CCRF-CEM
OVCAR-4 = tested on: OVCAR-4
Hs-578T = tested on: Hs-578T

Measured: GI50

CC1=C(C#N)C23C(=O)c4ccccc4C(=O)C2=C(O)C=CC3(O)N1 (centres undefined)
2.44 µM: HCT-15
active: SR 0.269 µM | OVCAR-3 0.861 µM | SW-620 0.553 µM | MOLT-4 0.484 µM | SK-MEL-5 1.06 µM | RPMI-8226 0.658 µM | LOX IMVI 0.512 µM | HL-60 0.313 µM | MCF7 0.597 µM | CCRF-CEM 0.365 µM
inactive: SF-295 13.6 µM | ACHN 1.53 µM | NCI/ADR-RES 7.83 µM | MDA-MB-435 2.81 µM | K562 1.15 µM | SK-OV-3 52 µM | UACC-62 2.52 µM | OVCAR-8 5.09 µM | SF-539 2.86 µM | MDA-N 1.53 µM | NCI-H460 5.46 µM | HCT-116 5.68 µM | RXF 393 3.8 µM | A498 21 µM | HCC 2998 4.02 µM | HOP-92 2.12 µM | U-251 8.39 µM | HT-29 1.23 µM | UACC-257 2.07 µM | BT-549 1.13 µM | Malme-3M 1.78 µM | KM12 9.08 µM | NCI-H23 3.84 µM | COLO 205 2.03 µM | OVCAR-5 4.76 µM | T47D 7.4 µM | EKVX 5.82 µM | TK-10 14.3 µM | SF-268 6.61 µM | SN12C 2.24 µM | SNB-19 4.33 µM | MDA-MB-231 8.83 µM | SK-MEL-2 4.4 µM | SK-MEL-28 2.51 µM | NCI-H226 15.7 µM | IGROV-1 2.38 µM | M14 2.19 µM | DU-145 2.98 µM | NCI-H522 1.48 µM | CAKI-1 4.06 µM | HOP-62 5.4 µM | PC-3 4.57 µM | SNB-75 2.3 µM | 786-0 2.2 µM | A549 1.67 µM | UO-31 2.37 µM | OVCAR-4 1.97 µM

CO/N=C(\C(=O)Nc1cncs1)c1csc(NC(c2ccccc2)(c2ccccc2)c2ccccc2)n1
> 10 µM: HCT-15
inactive: SF-295 7.21 µM | ACHN > 10 µM | NCI/ADR-RES > 10 µM | Hs-578T > 10 µM | K562 > 10 µM | SK-OV-3 > 10 µM | SR 4.12 µM | OVCAR-8 > 10 µM | OVCAR-3 > 10 µM | MDA-N > 10 µM | NCI-H460 4.56 µM | HCT-116 5 µM | SW-620 > 10 µM | RXF 393 9.55 µM | A498 > 10 µM | HCC 2998 8.53 µM | HOP-92 > 10 µM | U-251 > 10 µM | HT-29 4.63 µM | UACC-257 > 10 µM | BT-549 > 10 µM | Malme-3M > 10 µM | MOLT-4 3.31 µM | KM12 9.4 µM | NCI-H23 > 10 µM | COLO 205 > 10 µM | OVCAR-5 > 10 µM | SK-MEL-5 > 10 µM | T47D 6.52 µM | EKVX 6.12 µM | TK-10 > 10 µM | SF-268 9.79 µM | SN12C > 10 µM | SNB-19 > 10 µM | SK-MEL-2 > 10 µM | SK-MEL-28 > 10 µM | NCI-H226 > 10 µM | IGROV-1 > 10 µM | M14 > 10 µM | DU-145 > 10 µM | RPMI-8226 4.52 µM | NCI-H522 > 10 µM | CAKI-1 > 10 µM | LOX IMVI 7.21 µM | HOP-62 > 10 µM | HL-60 6.85 µM | PC-3 4.38 µM | MCF7 6.08 µM | SNB-75 9.95 µM | 786-0 > 10 µM | A549 3.84 µM | UO-31 4.37 µM | CCRF-CEM 3.81 µM | OVCAR-4 > 10 µM
active: SF-539 0.628 µM
